Measured values: patent publication US20260108554A1, “METHODS FOR REPROGRAMMING AND GENE EDITING CELLS” (Factor Bioscience Inc., priority 2022, published 2026)
Several values for one entry are separate records, joined by “and”; a condition that tells them apart may be missing. Identical values can stand only once.

Columns and labels:
Assay type in all cases: cell-based, human
AAVS1 [1] = assay: 300 base insertion in fibroblasts (SfoI cut band)
Description: In the gel, Lane 1: 100 base ladder; Lane 2: Ultraslice and SfoI 300 base insertion dsDNA repair template (Untreated); and Lane 3: Ultraslice and SfoI 300 base insertion dsDNA repair template (NU7441 9 uM 72 h treated).

fibroblasts = assay: cell cycle S/G2 population after Resveratrol treatment
AAVS1 safe-harbor locus = assay: SfoI assay (RFLP) of single-base editing in fibroblasts; details: for increase in single-base editing / base change efficiency compared to untreated: application after transfection (25 μM 48 h post electroporation)
Description: The following general protocol was used for an Sfol assay to quantify insertion of repair template.
(§1) • 1. Fibroblasts were cultured using DMEM+10% FBS media in 37° Celsius with 5% O2 and 5% CO2 • 2. iPSC was cultured using mTeSR+Y27632 in 37° Celsius with 5% O2 and 5% CO2
(§2) • 3. After detaching cells with TrypleE and DTI, standard electroporation protocol was performed • 4. 0.8 ug˜1 ug of AAVS1 Ultraslice RNA and 600 ng of SfoI ssDNA repair template was delivered by electroporation. Ultraslice is a temperature sensitive gene-editing protein. The SfoI base change ssDNA repair template was a single stranded DNA piece with homology arms that is used as template for targeted DNA repair • 5. Fibroblasts were electroporated with 700 V, 20 ms, 1 pulse • 6. iPSCs were electroporated with 1100 V, 20 ms, 2 pulse)
• 7. Cells were detached 48 h˜72 h post electroporation and centrifuged to obtain cell pellets • 8. Perform genomic DNA extraction was performed using ZYMO Research Quick DNA Miniprep Kit (Catalog #: D3024)
• 9. AAVS1 surveyor PCR was performed using KAPA Hifi Hotstart PCR kit
• 10. 250 ng˜400 ng of AAVS1 PCR amplicon was obtained • 11. Amplicon was mixed with 2 μl of 10× Tango Buffer and 1 μl of EheI enzyme • 12. The mixture was incubated for 1 h in 37° C., followed by 20 mins at 65° C.
• 13. After diluting SfoI assay product with 40 ul of H2O, 20 ul of product was loaded to 2% Egel • 14. After running 2% Egel for 10 minutes, the gel was visualized and SfoI band intensity was quantified using Chemidoc and ImageJ software
Following treatment with resveratrol, fibroblasts was co-transfected with mRNA encoding a chromatin context-sensitive gene-editing protein targeting the AAVS1 safe-harbor locus and a single-stranded DNA repair template designed to introduce a SfoI restriction-enzyme site through a G-to-C mutation. Single-base editing efficiency was determined by restriction fragment length polymorphism (RFLP) analysis. […] In the gel, Lane 1: 100 base ladder; Lane 2: Ultraslice and SfoI base change ssDNA repair template (Resveratrol 25 μM 48 h pretreatment); Lane 3: Ultraslice and SfoI base change ssDNA repair template (Untreated); and Lane 4: Ultraslice and SfoI base change ssDNA repair template (Resveratrol 25 μM treatment 48 post electroporation).

AAVS1 [2] = assay: 1 kb insertion in iPSCs (AAVS1 sPCR amplicon gel); details: iPSC
Description: as §1, §2
In this experiment, the gel image is AAVS1 sPCR amplicon and not Sfol assay product. In the gel, Lane 1: 1000 base ladder; Lane 2: Ultraslice (Clean cap) and SfoI 1 kb insertion ssDNA repair template with 90b homology arm (Reverse transcription); and Lane 3: Ultraslice (Clean cap) and SfoI 1 kb insertion ssDNA repair template with 90b homology arm (Reverse transcription)—Resveratrol 25 uM 24 h incubation.
In this experiment, the gel image is AAVS1 sPCR amplicon and not Sfol assay product. […]

iMSCs = assay: electroporation of GFP repair template at AAVS1 with or without TTAGGG motif; details: gene-editing at AAVS1 with GFP repair template
Description: FIG. 54 is a graphical illustration of the mechanism of action that the inclusion of the TTAGGG motif has on cells during electroporation. Cells were electroporated with and without the addition of a gene editing protein, UltraSlice. All electroporation's were performed using the Invitrogen NEON.
In this example, the TTAGGG motif was incorporated onto the 5′ end of a double stranded repair template or co-electroporated as a short oligo fragment in primary fibroblasts, iMSC, or iPSC.
The sequence of the TTAGGG motif used in this example was: […] (SEQ ID NO: 15). This motif was incorporated at the 5′ and 3′ end of dsODN via PCR amplification using the primer pair A151-AAVS1, Forward primer: […] (SEQ ID NO: 86) and A151-AAVS1, Reverse primer: […] (SEQ ID NO: 87). Control primers without the motif had the following sequences: AAVS1, Forward primer: […] (SEQ ID NO: 88) and AAVS1, Reverse primer: […] (SEQ ID NO: 89). The full sequence of the repair template that human primary fibroblasts, iMSCs and iPSCs was: AAVS1-h90-pJeT-GFP-SpA-h90. This repair template included a dsODN encoding a GFP reporter and containing an SfoI restriction site targeting the AAVS1 site with 90 base pairs of homology. The A151 sequence was added to the end of a double stranded repair template using PCR amplification. Repair templates were then purified using the Qiagen QIAquick PCR Purification kit prior to electroporation. […]

Compound: O=c1cc(N2CCOCC2)oc2c(-c3cccc4c3sc3ccccc34)cccc12 [NU7441]
- gene-editing efficiency (gel) (AAVS1 [1]): increased gene-editing efficiency
- increase in 300b insertion SfoI cut band intensity compared to untreated (AAVS1 [1]; fibroblasts, 9 uM 72 h incubation): 7 fold

Compound: Oc1ccc(C=Cc2cc(O)cc(O)c2)cc1 [Resveratrol]
- increase in S/G2 population (fibroblasts; 25 uM for 48 h followed by 8 h incubation in DMEM/10% FBS): approximately 40%
- increase of the S and G2-phase population (fibroblasts; treatment prior to transfection, compared to untreated cells): 2.3 fold
- increase in single-base editing / base change efficiency compared to untreated (AAVS1 safe-harbor locus): approximately 2.3 fold
- increase in single-base editing / base change efficiency compared to untreated (AAVS1 safe-harbor locus; listed as resveratrol): > 2 fold
- increase in HDR / base change efficiency compared to untreated (AAVS1 safe-harbor locus; fibroblasts, 25 μM 48 h pretreatment prior to transfection): 2.2 fold and 2 fold
- gene-editing efficiency (gel) (AAVS1 safe-harbor locus; pretreated fibroblasts): increased gene-editing efficiency
- 1 kb insertion rate (AAVS1 [2]; 25 uM for 24 h post electroporation, ssDNA repair template (Reverse transcription)): 8.7%
- increase of 1 kb insertion (AAVS1 [2]; treatment after electroporation): 1.6 fold

Compound: TTAGGGTTAGGGTTAGGGTTAGGG [A151 ODN]
- higher viability than when the motif was not present (iMSCs): approximately 50%
- more GFP-positive cells than when the motif was not present (iMSCs): approximately 50%
